Laboratory results from patent US20050282743A1, “Molecular interactions in cells” (Arbor Vita Corporation, priority 2001, published 2005).
Ends that are not written are not given here. Peptide text beside a SMILES is read from it. * marks the point of attachment. Biotin = O=C1N[C@H]2[C@H](CS[C@H]2CCCCC(=O)*)N1

Target: T1, PDZ protein (GST-PDZ fusion) (Homo sapiens, UniProt Q9UQ26)
T1 construct: made in house; host or cells: E. coli (DH5alpha, BL21 or JM109)
T1 sequence (Q9UQ26 1-1411): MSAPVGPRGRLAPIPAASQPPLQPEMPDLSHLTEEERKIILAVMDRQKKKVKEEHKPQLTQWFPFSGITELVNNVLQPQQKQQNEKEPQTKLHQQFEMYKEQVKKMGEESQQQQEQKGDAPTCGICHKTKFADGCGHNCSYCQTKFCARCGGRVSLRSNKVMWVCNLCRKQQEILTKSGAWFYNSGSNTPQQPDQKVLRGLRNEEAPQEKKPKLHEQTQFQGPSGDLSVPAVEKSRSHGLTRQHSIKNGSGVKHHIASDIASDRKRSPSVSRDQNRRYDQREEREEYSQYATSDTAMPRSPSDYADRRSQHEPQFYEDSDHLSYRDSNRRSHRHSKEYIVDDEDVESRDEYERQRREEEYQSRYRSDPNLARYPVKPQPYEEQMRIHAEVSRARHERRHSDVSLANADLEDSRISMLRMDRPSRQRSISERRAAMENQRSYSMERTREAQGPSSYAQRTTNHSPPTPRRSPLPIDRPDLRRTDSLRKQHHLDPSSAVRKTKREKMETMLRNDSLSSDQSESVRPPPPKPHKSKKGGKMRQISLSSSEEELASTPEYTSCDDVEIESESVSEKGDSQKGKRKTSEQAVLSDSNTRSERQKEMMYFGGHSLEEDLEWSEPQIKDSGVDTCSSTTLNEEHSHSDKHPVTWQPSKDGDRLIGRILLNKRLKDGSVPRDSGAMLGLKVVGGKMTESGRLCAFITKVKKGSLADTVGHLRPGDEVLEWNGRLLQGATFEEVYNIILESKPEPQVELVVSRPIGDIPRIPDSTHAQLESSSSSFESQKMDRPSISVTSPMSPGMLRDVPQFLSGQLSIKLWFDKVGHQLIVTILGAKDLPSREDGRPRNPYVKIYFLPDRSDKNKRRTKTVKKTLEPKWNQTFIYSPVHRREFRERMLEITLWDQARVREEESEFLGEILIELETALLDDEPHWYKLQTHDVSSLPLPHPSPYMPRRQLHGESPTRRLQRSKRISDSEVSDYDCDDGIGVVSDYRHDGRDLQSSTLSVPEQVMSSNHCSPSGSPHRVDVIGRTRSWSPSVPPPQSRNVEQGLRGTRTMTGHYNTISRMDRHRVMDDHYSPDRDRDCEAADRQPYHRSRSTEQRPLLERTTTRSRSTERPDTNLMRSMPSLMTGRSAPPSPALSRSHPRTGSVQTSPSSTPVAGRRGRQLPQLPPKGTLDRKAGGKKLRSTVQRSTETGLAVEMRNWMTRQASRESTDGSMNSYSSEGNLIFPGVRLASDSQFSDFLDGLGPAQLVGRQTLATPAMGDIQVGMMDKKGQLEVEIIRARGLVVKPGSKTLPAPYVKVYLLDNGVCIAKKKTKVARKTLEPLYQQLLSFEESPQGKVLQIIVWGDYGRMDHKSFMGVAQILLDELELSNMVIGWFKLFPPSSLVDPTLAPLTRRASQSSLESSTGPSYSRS
Experiment: G' assay (10 uM PL peptide), results of TABLE 7 and TABLE 12
Assay type: binding
Details: PDZ KIAA0751(L), PDZ Domain 1
Outline: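 Biotinylated PL peptides at 10 uM (vs 20 uM in G^0 assay) bound to GST-PDZ fusions; PDZ protein at 5 ug/ml unless another concentration listed. Bound peptide read as A450 nm, classified 0–5 (0 = A450 0; 5 = A450 >4 repeated).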

Row | Compound | Classification
1 | CC[C@H](C)[C@H](NC(=O)[C@H](Cc1ccc(O)cc1)NC(=O)[C@H](CC(C)C)NC(=O)[C@H](CCC(N)=O)NC(=O)[C@H](Cc1c[nH]cn1)NC(=O)[C@H](CO)NC(=O)[C@H](C)NC(=O)[C@H](CC(C)C)NC(=O)[C@@H](NC(=O)[C@H](CC(=O)O)NC(=O)[C@H](CCSC)NC(=O)[C@H](Cc1ccccc1)NC(=O)[C@@H]1CCCN1C(=O)[C@H](CCCNC(=N)N)NC(=O)[C@@H](NC(=O)[C@H](CC(C)C)NC(=O)[C@H](CC(N)=O)NC(=O)[C@H](CC(=O)O)NC(=O)[C@@H](NC(=O)[C@H](CO)NC(=O)CCCC[C@@H]1SC[C@@H]2NC(=O)N[C@@H]21)[C@@H](C)O)C(C)C)[C@@H](C)O)C(=O)O [presenilin-2] (Biotin-STDNLVRPFMDTLASHQLYI-OH; C-terminus assumed) | 1 (A450 nm 0-1)
2 | A2AA_HUMAN (modified) (Biotin-HDFRRAFKKILARGDRKRIV; not fully specified) | 3 (A450 nm 2-3)
